Columns and labels:
Test in all cases: IC50 (cell viability, 72 h) (ln(µM))
BICR10 = tested on: BICR10
Protocol: (§1)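 Discovery screen of OSCC cell lines in 1,536-well plates. Cells were treated 24 h after seeding with 7 concentrations spanning a 1,000-fold half-log range for 72 h, and viability was read by CellTiter-Glo 2.0 and normalised to DMSO (1) and medium-only (0) controls. IC50 comes from a two-parameter logistic nonlinear mixed-effects fit and is reported as natural log of IC50 in µM.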

ORL-215 = tested on: ORL-215
Protocol: as §1

ORL-115 = tested on: ORL-115
Protocol: as §1

ORL-207 = tested on: ORL-207
Protocol: as §1

ORL-156 = tested on: ORL-156
Protocol: as §1

ORL-195 = tested on: ORL-195
Protocol: as §1

ORL-150 = tested on: ORL-150
Protocol: as §1

ORL-188 = tested on: ORL-188
Protocol: as §1

ORL-214 = tested on: ORL-214
Protocol: as §1

ORL-153 = tested on: ORL-153
Protocol: as §1

HSC-2 = tested on: HSC-2
Protocol: as §1

SAS = tested on: SAS
Protocol: as §1

SCC-9 = tested on: SCC-9
Protocol: as §1

ORL-204 = tested on: ORL-204
Protocol: as §1

ORL-166 = tested on: ORL-166
Protocol: as §1

HO-1-u-1 = tested on: HO-1-u-1
Protocol: as §1

ORL-48 = tested on: ORL-48
Protocol: as §1

HSC-4 = tested on: HSC-4
Protocol: as §1

ORL-174 = tested on: ORL-174
Protocol: as §1

ORL-136 = tested on: ORL-136
Protocol: as §1

PE-CA-PJ15 = tested on: PE-CA-PJ15
Protocol: as §1

Structure (SMILES)	IC50 (ln) (BICR10)	IC50 (ln) (ORL-215)	IC50 (ln) (ORL-115)	IC50 (ln) (ORL-207)	IC50 (ln) (ORL-156)	IC50 (ln) (ORL-195)	IC50 (ln) (ORL-150)	IC50 (ln) (ORL-188)	IC50 (ln) (ORL-214)	IC50 (ln) (ORL-153)	IC50 (ln) (HSC-2)	IC50 (ln) (SAS)	IC50 (ln) (SCC-9)	IC50 (ln) (ORL-204)	IC50 (ln) (ORL-166)	IC50 (ln) (HO-1-u-1)	IC50 (ln) (ORL-48)	IC50 (ln) (HSC-4)	IC50 (ln) (ORL-174)	IC50 (ln) (ORL-136)	IC50 (ln) (PE-CA-PJ15)
Cc1cc(-c2nc(-c3ccc(OC(F)(F)F)cc3)no2)nn1Cc1ccnc(N2CCN(C3CC3)CC2)c1 [BAY-87-2243]	-1.01	-2.31	-5.09	-2.38	-0.734	-1.57	-2.36	-0.131	-0.338	-0.683	-1.04	-3.51	-3.5	-2.77	-2.29	-1.24	-1.95	-5.92	-0.785	-0.901	-1.76
CC[C@@H]1C(=O)N(C)c2cnc(Nc3ccc(C(=O)NC4CCN(C)CC4)cc3OC)nc2N1C1CCCC1 [BI-2536]	-2.78	-3.45	-2.1	-2.92	-2.91	-2.26	-3.5	-2.94	-2.28	-2.08	-2.87	-1.93	0.0591	-0.226	-3.02	-2.33	-1.8	-1.33	-2.58	1.66	-0.628
CC(C)C[C@H](NC(=O)[C@H](Cc1ccccc1)NC(=O)c1cnccn1)B(O)O [Bortezomib]	-4.95	-5.32	-4.36	-5.3	-4.46	-5.04	-4.88	-5.03	-5.37	-4.84	-5.55	-5.88	-4.18	-4.52	-5.43	-5.69	-4.47	-4.5	-5.44	-4.79	-4.28
CC[C@@]1(O)C(=O)OCc2c1cc1n(c2=O)Cc2cc3ccccc3nc2-1 [Camptothecin]	-1.45	-2.87	-1.73	-4.09	-2.15	-2.2	-3.04	-3.95	-4.76	-3.34	-4	-4.38	1.24	-3.82	-3.18	-0.864	-2.57	-3.06	-2.91	-1.37	-2.24
Cc1c2oc3c(C)ccc(C(=O)N[C@@H]4C(=O)N[C@H](C(C)C)C(=O)N5CCC[C@H]5C(=O)N(C)CC(=O)N(C)[C@@H](C(C)C)C(=O)O[C@@H]4C)c3nc-2c(C(=O)N[C@@H]2C(=O)N[C@H](C(C)C)C(=O)N3CCC[C@H]3C(=O)N(C)CC(=O)N(C)[C@@H](C(C)C)C(=O)O[C@@H]2C)c(N)c1=O [Dactinomycin]	-3.88	-4.6	-4.09	-5.32	-5.7	-5.67	-5.32	-5.69	-5.57	-6.27	-5.7	-4.65	-2.9	-4.99	-6.04	-5.18	-5.43	-3.96	-5.84	-4.38	-4.55
CCc1cnn2c(NCc3ccc[n+]([O-])c3)cc(N3CCCC[C@H]3CCO)nc12 [Dinaciclib]	-2.5	-4.15	-4.03	-3.83	-4.06	-3.57	-3.93	-4.08	-4.09	-3.5	-4.36	-4.47	-1.35	-3.8	-4.64	-3.83	-3.44	-3.41	-4.02	-2.65	-3.29
CC(=O)O[C@@]12CO[C@@H]1C[C@H](O)[C@@]1(C)C(=O)[C@H](O)C3=C(C)[C@@H](OC(=O)[C@H](O)[C@@H](NC(=O)OC(C)(C)C)c4ccccc4)C[C@@](O)([C@@H](OC(=O)c4ccccc4)[C@H]21)C3(C)C [Docetaxel]	-5.07	-6.3	-4.57	-6.77	-4.72	-5.11	-6.63	-7	-6.46	-5.35	-6.54	-3.91	-3.63	-5.44	-5.53	-4.77	-6.36	-4.06	-6.19	-2.74	-3.61
CCNC(=O)c1noc(-c2cc(C(C)C)c(O)cc2O)c1-c1ccc(CN2CCOCC2)cc1 [Luminespib]	-3.95	-3.76	-1.26	-4.84	-3.29	-4.03	-3.97	-4.38	-4.45	-3.79	-4.34	-3.87	-2.72	-2.64	-2.05	-4.16	-4.29	-2.55	-4.47	-3.13	-2.87
CC(C)C[C@@H](C=O)NC(=O)[C@H](CC(C)C)NC(=O)[C@H](CC(C)C)NC(=O)OCc1ccccc1 [MG-132]	-0.312	-1.39	-0.897	-1.48	-0.951	-1.32	-0.689	-1.21	-1.68	-1.31	-1.34	-1.28	-0.805	-1.04	-1.11	-1.98	-1.04	-0.832	-1.61	-1.24	-0.875
COc1ncc(-c2ccc3nccc(-c4ccnnc4)c3c2)cc1NS(=O)(=O)c1ccc(F)cc1F [Omipalisib]	-2.02	-2.45	-1.58	-3.51	-3.31	-3.16	-4.18	-3.88	-3.91		-4.69	-1.24	-1.11	-2.59	-2.96	-3.13	-3.43	-0.985	-3.91	-2.66	-1.36

Reference: the supplement of paper PMC11551840
